What was measured:
Format in all cases: in vivo
[1] = tested on: male C57BL/6J mice fed a high fat Western Diet, with or without streptozotocin; assay: Acute Glucose Lowering Study (tail-vein blood glucose over 5 hours after a single dose); details: for average change in blood glucose measurement: 100 mg/kg, N=10
Text: The studies reported below dosed male C57BL/6J mice with an EP3 antagonist, GW671021B, and monitored the effects on glucose homeostasis by measuring tail-vein blood glucose. The animals were either (a) fed a high fat diet to induce mild insulin resistance, or (b) were fed the high fat diet and also treated with a low dose of streptozotocin (which damages the pancreatic beta-cells) resulting in both insulin resistance and insulin deficiency (as in T2DM patients).
Materials and Methods: Male 6 week old C57BL/6J mice (Jackson Laboratory, Bar Harbor Me.) were made mildly insulin resistant by feeding a high fat Western Diet (WD) (Research Diets, D12079B) for 3 weeks. Test mice were then made insulin deficient by intraperitoneal injection (IP) with 100 mg/kg Streptozotocin (STZ or streptozocin; Zanosar®, Sicor Pharmaceuticals, Irvine, Calif.) reconstituted in citric acid. Control mice (also on the WD) were injected with the same volume and concentration of citric acid without the STZ. Two weeks after the STZ (or control citric acid) injections the mice received injections of either GW021 in vehicle, or vehicle alone (as described below). Student's t-test or Tukey's HSD (Honestly Significant Different) test was used to determine the significance of the results.
Acute Glucose Lowering Study: At 6:30 am mice were transferred to clean cages with water in the procedure room and allowed to acclimate for 1 hour. After acclimation, a small snip was made at the tip of the tail for blood collection and baseline glucose measurements were collected using the Bayer Elite XL glucometer. Mice were dosed with either compound GW671021B (100 mg/kg body weight) in a suspension in 0.5% HPMC, 0.1% Tween 80; or dosed with Vehicle only (HPMC, 0.1% Tween 80). Whole blood for glucose measurement was collected at 0.5, 1, 2, 3, 4, and 5 hours after dosing. […] There were 10 mice in each treatment group.
Data represent an average blood glucose measurement (mg/dL) of the 10 mice in each treatment group at each time point.

[2] = tested on: C57BL/6J mice fed a high fat diet (Western Diet) and treated with streptozocin; assay: 14 Day Chronic Study (glucose after 1st, 15th and 27th dose); details: 0, 7 and 13 days of treatment, twice daily dosing, compared to STZ treated mice without compound
Experimental: A 14 day chronic study in C57BL/6J mice was performed. The animals were fed a high fat diet (Western Diet) and treated with a low dose of streptozocin (which damages the pancreatic beta-cells) resulting in both insulin resistance and insulin deficiency (as in T2DM patients). Mice were prepared as generally described above in Example 2. Two weeks after injection of streptozocin, a twice daily dosing schedule was started with: • 1. GW67021B (10 mg/kg, 30 mg/kg, or 100 mg/kg); or • 2. CB-1 (Rimonabant, antagonist of the CB-1 receptor; commonly used as a positive control for weight-loss inducing drugs) at 5 mg/kg; or • 3. GW34784 (PPAR gamma agonist compound as another positive control) at 3 mg/kg (also referred to as GW845 or GW7845))
All compounds were dosed in suspension in 0.5% HPMC; 0.1% Tween 80 by body weight. The same general procedures used in the acute study (Example 2) were utilized in this chronic study. Glucose was measured following the 1st, 15th and 27th dose (day 0, 7, and 13) at 0, 1, 2, 3, 4, and 5 hour time points. Results are graphed in FIGS. 3a-3c for the groups of mice receiving WD+Streptozocin+Vehicle (no compound); WD+Streptozocin+GW021 10 mg/kg; WD+Streptozocin+GW021 30 mg/kg; WD+Streptozocin+GW021 100 mg/kg; WD+Streptozocin+GW845 3 mg/kg; WD+Streptozocin+CB-1 5 mg/kg.

[3] = tested on: streptozocin-treated mice fed a high-fat Western Diet; assay: Final Glucose Measurement on the 14th day (after 28th dose); details: compared to mice not treated with compound (FIG. 4)
Experimental: Groups of mice were maintained on diet and dosing schedules as described, and on the 14th day were moved to the procedure room, dosed with a final 28th dose (of compound or vehicle only, according to their group as shown in FIG. 4), then acclimated for about 1 hour with access to food and water before bleeding to measure blood glucose.
In FIG. 4 the first […] bars (from left to right) represent mice that were treated with STZ and vehicle only; STZ and GW021B 10 mg/kg; STZ and GW021 B 30 mg/kg; STZ and GW021 B 100 mg/kg; STZ and GW845 3 mg/kg. The seventh bar represents mice that were not treated with STZ (citric acid control) and were not treated with any compound (Vehicle only). “Vehicle” mice were dosed with HPMC/Tween only (no GW021, CB-1 or GW 845). Each bar represents an average of a single blood draw taken on day 14 from each of the ten mice in a group.

## COc1ccc(Br)cc1S(=O)(=O)[N-]C(=O)/C=C/c1ccccc1Cc1ccc2ccccc2c1.[Na+] [GW021B]
[1]; WD + STZ mice, 0 hrs (baseline)
  average change in blood glucose measurement: 0 mg/dL
[1]; WD + STZ mice, 0.5 hrs after dosing
  average change in blood glucose measurement: -16 mg/dL
[1]; WD + STZ mice, 1 hr after dosing
  average change in blood glucose measurement: -46 mg/dL
[1]; WD + STZ mice, 2 hrs after dosing
  average change in blood glucose measurement: -59 mg/dL
[1]; WD + STZ mice, 3 hrs after dosing
  average change in blood glucose measurement: -66 mg/dL
[1]; WD + STZ mice, 4 hrs after dosing
  average change in blood glucose measurement: -83 mg/dL
[1]; WD + STZ mice, 5 hrs after dosing
  average change in blood glucose measurement: -79 mg/dL
[1]; WD + citric acid mice (no STZ), 0 hrs (baseline)
  average change in blood glucose measurement: 0 mg/dL
[1]; WD + citric acid mice (no STZ), 0.5 hrs after dosing
  average change in blood glucose measurement: -14 mg/dL
[1]; WD + citric acid mice (no STZ), 1 hr after dosing
  average change in blood glucose measurement: -14 mg/dL
[1]; WD + citric acid mice (no STZ), 2 hrs after dosing
  average change in blood glucose measurement: -9 mg/dL
[1]; WD + citric acid mice (no STZ), 3 hrs after dosing
  average change in blood glucose measurement: -18 mg/dL
[1]; WD + citric acid mice (no STZ), 4 hrs after dosing
  average change in blood glucose measurement: -37 mg/dL
[1]; WD + citric acid mice (no STZ), 5 hrs after dosing
  average change in blood glucose measurement: -37 mg/dL
[1]; streptozocin-treated C57BL/6J mice fed high-fat Western Diet, 5 hour time course
  effect on blood glucose (change compared to baseline), in words: blood glucose lowering effect
[2]
  effect on glucose (change compared to baseline), in words: continued to have glucose lowering effects
[3]
  blood glucose level on the fourteenth day of treatment, in words: lower blood glucose levels
